Test results taken from patent US9371320B2, “Heterocyclic compound” (TAKEDA PHARMACEUTICAL COMPANY LIMITED, priority 2012, dated 2016).

Columns and labels:
Tyk2 = molecular target: T1, Tyk2 (Homo sapiens, UniProt P29597); experiment: Tyk2 enzyme inhibition test (LANCE method); format: biochemical; conditions: test compound 1 μM; read-out: Inhibitory rate (%) Tyk2 1 μM
T1 construct: purchased Invitrogen
Summary of the method: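 LANCE TR-FRET read-out (ex 340/em 665 nm, 100 μs delay) of ULight-JAK1 phosphorylation, with no-enzyme wells as 100% inhibition. Reaction run 1 h at room temperature in pH 7.5 HEPES buffer; enzyme 375 ng/mL, substrate 300 nM and ATP 30 μM are solution concentrations before mixing.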

JAK1 = molecular target: T2, JAK1 (Homo sapiens, UniProt P23458); experiment: JAK1 enzyme inhibition test (LANCE method); format: biochemical; conditions: for inhibition at 1 µM: test compound 1 μM, read-out: Inhibitory rate (%) JAK1 1 μM; for inhibition at 10 µM: test compound 10 μM (Ex. 182-220), beside Tyk2 1 μM, read-out: Inhibitory rate (%) JAK1 10 μM
T2 construct: purchased Invitrogen
T2 sequence (P23458 whole entry): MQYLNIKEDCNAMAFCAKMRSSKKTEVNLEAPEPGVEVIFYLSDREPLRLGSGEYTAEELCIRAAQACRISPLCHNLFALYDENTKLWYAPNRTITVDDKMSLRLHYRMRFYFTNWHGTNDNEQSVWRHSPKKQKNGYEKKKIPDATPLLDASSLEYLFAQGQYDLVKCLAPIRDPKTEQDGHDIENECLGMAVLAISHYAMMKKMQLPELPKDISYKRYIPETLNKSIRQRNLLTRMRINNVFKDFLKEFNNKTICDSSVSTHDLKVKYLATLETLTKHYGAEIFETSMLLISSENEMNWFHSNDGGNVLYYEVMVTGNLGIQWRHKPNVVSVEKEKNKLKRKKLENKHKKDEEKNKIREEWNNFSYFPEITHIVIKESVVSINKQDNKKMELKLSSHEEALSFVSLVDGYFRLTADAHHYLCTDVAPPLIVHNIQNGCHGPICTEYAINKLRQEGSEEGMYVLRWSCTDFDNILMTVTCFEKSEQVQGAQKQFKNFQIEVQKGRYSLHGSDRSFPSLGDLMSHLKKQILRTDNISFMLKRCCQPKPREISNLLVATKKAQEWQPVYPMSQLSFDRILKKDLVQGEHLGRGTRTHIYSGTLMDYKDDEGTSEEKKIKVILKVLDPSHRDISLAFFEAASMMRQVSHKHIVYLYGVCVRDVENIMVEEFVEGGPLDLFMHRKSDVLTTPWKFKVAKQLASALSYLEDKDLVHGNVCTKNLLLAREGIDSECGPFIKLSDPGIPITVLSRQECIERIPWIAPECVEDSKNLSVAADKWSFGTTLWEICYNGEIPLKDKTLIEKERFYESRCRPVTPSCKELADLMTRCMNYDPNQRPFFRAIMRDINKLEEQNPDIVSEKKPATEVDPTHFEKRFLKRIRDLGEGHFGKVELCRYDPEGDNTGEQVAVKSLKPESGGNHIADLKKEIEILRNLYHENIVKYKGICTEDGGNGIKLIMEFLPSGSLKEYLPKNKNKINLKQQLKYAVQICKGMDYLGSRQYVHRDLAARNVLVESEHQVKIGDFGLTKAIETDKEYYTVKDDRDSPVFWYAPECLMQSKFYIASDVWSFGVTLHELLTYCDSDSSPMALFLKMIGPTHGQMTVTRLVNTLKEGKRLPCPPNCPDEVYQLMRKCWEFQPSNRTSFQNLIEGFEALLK
Summary of the method: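 Reactions ran 1 h at room temperature in HEPES pH 7.5/MgCl2 buffer, with ATP solution at 150 μM and JAK1 and ULight peptide solutions at 187.5 ng/mL and 300 nM. Reactions were stopped with EDTA, and phosphorylation was read by Eu antibody time-resolved fluorescence at 665 nm. Inhibition was scaled to a no-enzyme control as 100%.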

T1 sequence (P29597 whole entry): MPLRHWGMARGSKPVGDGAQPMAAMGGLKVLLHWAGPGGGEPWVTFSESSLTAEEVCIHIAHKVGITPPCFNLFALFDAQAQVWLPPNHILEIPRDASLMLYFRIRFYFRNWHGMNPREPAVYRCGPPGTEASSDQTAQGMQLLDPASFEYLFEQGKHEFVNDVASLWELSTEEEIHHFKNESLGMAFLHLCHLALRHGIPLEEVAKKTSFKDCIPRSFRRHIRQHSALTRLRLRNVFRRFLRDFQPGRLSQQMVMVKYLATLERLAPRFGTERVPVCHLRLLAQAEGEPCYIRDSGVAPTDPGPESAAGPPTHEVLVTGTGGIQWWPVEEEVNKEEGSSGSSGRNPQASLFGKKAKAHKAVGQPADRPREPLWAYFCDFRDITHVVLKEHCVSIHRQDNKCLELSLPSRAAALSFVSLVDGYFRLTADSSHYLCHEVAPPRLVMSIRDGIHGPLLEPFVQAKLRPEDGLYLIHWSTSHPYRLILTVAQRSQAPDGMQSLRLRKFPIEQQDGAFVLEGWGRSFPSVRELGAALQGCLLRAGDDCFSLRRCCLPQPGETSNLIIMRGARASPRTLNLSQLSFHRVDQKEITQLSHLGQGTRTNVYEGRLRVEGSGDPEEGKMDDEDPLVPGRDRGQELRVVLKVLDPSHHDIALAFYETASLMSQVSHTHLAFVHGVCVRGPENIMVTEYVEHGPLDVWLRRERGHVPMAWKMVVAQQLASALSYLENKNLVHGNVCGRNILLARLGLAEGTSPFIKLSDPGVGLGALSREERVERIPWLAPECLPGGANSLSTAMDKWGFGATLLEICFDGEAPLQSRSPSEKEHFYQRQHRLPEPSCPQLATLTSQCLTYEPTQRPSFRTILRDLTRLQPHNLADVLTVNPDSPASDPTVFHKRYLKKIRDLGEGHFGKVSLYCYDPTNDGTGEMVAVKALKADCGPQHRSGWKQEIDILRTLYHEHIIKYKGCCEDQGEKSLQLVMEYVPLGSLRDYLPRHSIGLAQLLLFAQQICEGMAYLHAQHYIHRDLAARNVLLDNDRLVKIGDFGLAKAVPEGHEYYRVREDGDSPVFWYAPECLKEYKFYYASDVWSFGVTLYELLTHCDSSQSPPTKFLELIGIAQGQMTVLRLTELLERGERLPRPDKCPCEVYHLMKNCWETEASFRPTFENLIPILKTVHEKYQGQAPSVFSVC

SMILES	inhibition at 1 µM (Tyk2) [%]	inhibition at 1 µM (JAK1) [%]	inhibition at 10 µM (JAK1) [%]
N#CCc1ccc(-c2nn(-c3c(F)cccc3F)c3c(Br)c[nH]c(=O)c23)cc1 [Example 104, (4-(7-bromo-1-(2,6-difluorophenyl)-4-oxo-4,5-dihydro-1H-pyrazolo[4,3-c]pyridin-3-yl)phenyl)acetonitrile]	99	94	
N#Cc1c[nH]c(=O)c2c1c(C1CCCC1)nn2-c1csc(C(=O)O)c1 [Example 65, 4-(4-cyano-3-cyclopentyl-7-oxo-6,7-dihydro-1H-pyrazolo[3,4-c]pyridin-1-yl)thiophene-2-carboxylic acid]	76	27	
O=c1[nH]cc(Cl)c2c1c(-c1ccc(N3CCOCC3)nc1)nn2-c1c(F)cccc1F [Example 164, 7-chloro-1-(2,6-difluorophenyl)-3-(6-(morpholin-4-yl)pyridin-3-yl)-1,5-dihydro-4H-pyrazolo[4,3-c]pyridin-4-one]	99	66	
O=c1[nH]ccc2c1c(-c1ccc(C3=CCOCC3)cc1)nn2-c1c(F)cccc1F [Example 256, 1-(2,6-difluorophenyl)-3-(4-(3,6-dihydro-2H-pyran-4-yl)phenyl)-1,5-dihydro-4H-pyrazolo[4,3-c]pyridin-4-one]	98	92	
CC(C)(C#N)c1ccc(-c2nn(-c3c(F)cccc3F)c3c(Cl)c[nH]c(=O)c23)cc1 [Example 187, 2-(4-(7-chloro-1-(2,6-difluorophenyl)-4-oxo-4,5-dihydro-1H-pyrazolo[4,3-c]pyridin-3-yl)phenyl)-2-methylpropanenitrile]	98		83
NC(=O)Cn1cc(-c2nn(-c3c(F)cccc3F)c3c(Cl)c[nH]c(=O)c23)cn1 [Example 190, 2-(4-(7-chloro-1-(2,6-difluorophenyl)-4-oxo-4,5-dihydro-1H-pyrazolo[4,3-c]pyridin-3-yl)-1H-pyrazol-1-yl)acetamide]	99		81
Cn1cnc2cc(-c3nn(-c4c(F)cccc4F)c4c(Cl)c[nH]c(=O)c34)ccc21 [Example 226, 7-chloro-1-(2,6-difluorophenyl)-3-(1-methyl-1H-benzimidazol-5-yl)-1,5-dihydro-4H-pyrazolo[4,3-c]pyridin-4-one]	98	40	
